The source of these data is ChEMBL document CHEMBL3751723, “Discovery of highly potent dual EP(2) and EP(3) agonists with subtype selectivity” (Bioorg Med Chem Lett, 2016).

Usually Ki stands for a dissociation constant, usually derived from enzyme kinetics or from competition with a known ligand. Higher therefore signals lower affinity. In general, EC50 refers to the midpoint of the concentration-response curve. A higher EC50 goes with weaker potency. The term bioavailability denotes dose-corrected exposure relative to a reference, in per cent. A higher bioavailability goes with much systemic uptake. As a reminder, the clearance is the rate of elimination divided by the concentration. A lower clearance goes with a low capacity for elimination. As usually defined, the AUC is the area under the concentration-time curve, a measure of exposure. Low readings indicate less exposure, high ones more exposure. The term half-life denotes the time needed for the level to fall by half in the phase considered. The low end stands for rapid decline, the high end for slow decline.

Data set [1] concerns the target T1, Prostaglandin E2 receptor EP1 subtype (Homo sapiens, UniProt P34995).
T1 sequence (P34995 whole entry): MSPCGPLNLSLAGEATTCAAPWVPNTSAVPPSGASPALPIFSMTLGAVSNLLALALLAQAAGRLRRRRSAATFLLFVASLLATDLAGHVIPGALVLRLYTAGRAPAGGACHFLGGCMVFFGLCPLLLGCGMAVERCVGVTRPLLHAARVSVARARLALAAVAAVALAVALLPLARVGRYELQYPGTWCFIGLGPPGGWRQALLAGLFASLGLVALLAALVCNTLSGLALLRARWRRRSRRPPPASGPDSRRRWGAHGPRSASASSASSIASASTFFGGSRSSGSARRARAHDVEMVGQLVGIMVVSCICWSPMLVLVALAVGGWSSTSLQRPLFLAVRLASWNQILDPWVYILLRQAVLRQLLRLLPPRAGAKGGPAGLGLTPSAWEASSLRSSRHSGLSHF
The data set can be described thus: Binding affinity to human EP1 receptor.

The target in data set [2] is T2, Prostaglandin E2 receptor EP3 subtype (Homo sapiens, UniProt P43115).
T2 sequence (P43115 whole entry): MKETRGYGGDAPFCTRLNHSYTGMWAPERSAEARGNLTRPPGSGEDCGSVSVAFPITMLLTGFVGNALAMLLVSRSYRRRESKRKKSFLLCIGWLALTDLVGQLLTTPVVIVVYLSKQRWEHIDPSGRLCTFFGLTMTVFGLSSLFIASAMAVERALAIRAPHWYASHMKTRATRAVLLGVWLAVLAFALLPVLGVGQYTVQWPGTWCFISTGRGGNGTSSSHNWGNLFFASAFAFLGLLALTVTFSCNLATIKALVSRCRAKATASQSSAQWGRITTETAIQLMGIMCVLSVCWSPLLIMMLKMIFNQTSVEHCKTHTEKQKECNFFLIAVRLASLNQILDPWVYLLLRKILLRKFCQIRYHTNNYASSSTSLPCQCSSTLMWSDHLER
The data set can be described thus: Agonist activity at human EP3 receptor.

The nature of data set [3]: Oral bioavailability in rat at 1 mg/kg. Particulars: in vivo. Type of data set: ADME, organism-based.
Data set [4] in a line: Clearance in rat at 0.01 mg/kg, iv. Type of data set: ADME, organism-based. Particulars: in vivo.
A short description of data set [5]: AUC in rat at 1 mg/kg, po. Type of data set: ADME, organism-based. Particulars: in vivo.
Data set [6] addresses Prostaglandin E2 receptor EP2 subtype (Homo sapiens, UniProt P43116). As to the kind of experiment: Agonist activity at human EP2 receptor.
Data set [7] has as its target Prostaglandin E2 receptor EP4 subtype (Homo sapiens, UniProt P35408). The data set can be described thus: Agonist activity at human EP4 receptor.
Data set [8] in a line: Half life in rat at 0.01 mg/kg, iv. Particulars: in vivo. The data set is classed as ADME, organism-based.

Prostaglandin E2 receptor EP4 subtype, sequence (P35408 whole entry): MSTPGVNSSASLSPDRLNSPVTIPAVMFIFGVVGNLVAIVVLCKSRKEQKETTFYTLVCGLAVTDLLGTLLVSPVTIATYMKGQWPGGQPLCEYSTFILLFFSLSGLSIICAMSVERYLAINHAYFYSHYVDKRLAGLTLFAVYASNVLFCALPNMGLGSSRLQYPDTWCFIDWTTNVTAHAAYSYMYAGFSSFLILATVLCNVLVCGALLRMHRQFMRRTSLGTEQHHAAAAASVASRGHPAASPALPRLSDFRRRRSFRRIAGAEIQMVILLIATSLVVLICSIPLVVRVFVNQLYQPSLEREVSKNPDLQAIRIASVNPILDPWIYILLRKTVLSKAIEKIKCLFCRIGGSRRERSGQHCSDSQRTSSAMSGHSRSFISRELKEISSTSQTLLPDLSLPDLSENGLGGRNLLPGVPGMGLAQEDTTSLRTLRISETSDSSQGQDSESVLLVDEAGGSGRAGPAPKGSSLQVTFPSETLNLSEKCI
Prostaglandin E2 receptor EP2 subtype, sequence (P43116 whole entry): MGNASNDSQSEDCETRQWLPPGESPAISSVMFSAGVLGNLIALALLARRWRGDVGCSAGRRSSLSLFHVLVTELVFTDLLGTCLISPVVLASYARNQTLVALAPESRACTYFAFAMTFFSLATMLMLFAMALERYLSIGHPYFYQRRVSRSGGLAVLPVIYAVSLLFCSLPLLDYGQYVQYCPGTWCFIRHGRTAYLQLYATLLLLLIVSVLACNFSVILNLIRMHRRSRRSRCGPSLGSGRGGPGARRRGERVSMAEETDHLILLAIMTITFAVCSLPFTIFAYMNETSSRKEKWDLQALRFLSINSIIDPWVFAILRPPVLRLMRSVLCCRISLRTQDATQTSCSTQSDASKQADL

The compound `O=C(O)c1csc(SCCN2C(=O)OC[C@@H]2/C=C/[C@@H](O)C2(CCCCF)CCC2)n1` yielded a Ki in data set [1] of 1080 nM. The EC50 is 10 nM in data set [2], 2.9 nM in data set [6] and 195 nM in data set [7]. This compound also showed a bioavailability in data set [3] of 2.5%. The clearance in data set [4] is 9.5 mL/min/kg. The same compound had an AUC in data set [5] of 41 ng·h/mL. In data set [8], the half-life is 4.4 h.

On to `CCCCC(C)(C)[C@H](O)/C=C/[C@H]1CCC(=O)N1CCSc1nc(C(=O)O)cs1`, for which the results for the EC50 in data set [2], in data set [6] and in data set [7] were 8.4 nM, 0.91 nM and 4.2 nM, respectively.

`CC(C)(CCCCF)[C@H](O)/C=C/[C@H]1COC(=O)N1CCSc1nc(C(=O)O)cs1` yielded a Ki in data set [1] of 431 nM. In addition, the EC50 in data set [2] was found to be 4.7 nM; in data set [6] it was 5.7 nM; in data set [7] it was 1220 nM.

`CC(C)(C)CCC1([C@H](O)/C=C/[C@H]2COC(=O)N2CCSc2nc(C(=O)O)cs2)CCC1` showed a Ki in data set [1] of 149 nM. For the same compound, the EC50 in data set [2] was 6.7 nM; in data set [6], 3700 nM; in data set [7], 4710 nM.

Take `CCCCC1([C@H](O)/C=C/[C@H]2COC(=O)N2CCSc2nc(C(=O)O)cs2)CCC1`: the Ki in data set [1] worked out at 220 nM. The figures for the EC50 in data set [2], in data set [6] and in data set [7] were 3.9 nM, 2.9 nM and 73 nM, respectively.

With `CC#CCC1([C@H](O)/C=C/[C@H]2COC(=O)N2CCSc2nc(C(=O)O)cs2)CCC1`, affinity in data set [1] was put at a Ki of 89 nM. Also, the figures for the EC50 in data set [2], in data set [6] and in data set [7] were 18 nM, 21 nM and 240 nM, respectively.

The compound `O=C(O)c1csc(SCCN2C(=O)OC[C@@H]2/C=C/[C@@H](O)C2(CCc3ccccc3)CCC2)n1` showed a Ki in data set [1] of 802 nM. In addition, the EC50 in data set [2] was 27 nM; in data set [6] it was 160 nM; in data set [7], 465 nM.

`COCCCC1([C@H](O)/C=C/[C@H]2COC(=O)N2CCSc2nc(C(=O)O)cs2)CCC1` came in with a Ki in data set [1] greater than 10000 nM. The 50% effective concentration (EC50) was found to be 25 nM in data set [2], 18 nM in data set [6] and 705 nM in data set [7].

Consider `CCCCC(C)(C)[C@H](O)/C=C/[C@H]1COC(=O)N1CCSc1nc(C(=O)O)cs1`, for which, in data set [1], the affinity corresponds to a Ki of 120 nM. Moreover, the results for the EC50 in data set [2], in data set [6] and in data set [7] were 50 nM, 7.4 nM and 320 nM, respectively.

`CCOCCC1([C@H](O)/C=C/[C@H]2COC(=O)N2CCSc2nc(C(=O)O)cs2)CCC1` registered a Ki in data set [1] of 8420 nM. The EC50 in data set [2] turned out to be 2610 nM; in data set [6] it was 29 nM; in data set [7] it was 745 nM.

As for `O=C(O)c1csc(SCCN2C(=O)OC[C@@H]2/C=C/[C@@H](O)C2(CCC3CCCCC3)CCC2)n1`, affinity in data set [1] was put at a Ki of 1330 nM. Moreover, the results for the EC50 in data set [2], in data set [6] and in data set [7] were 7.4 nM, 60 nM and 8390 nM, respectively.

Turning to `CCCC[C@H](C)C[C@H](O)/C=C/[C@H]1CCC(=O)N1CCSc1nc(C(=O)O)cs1`, the EC50 in data set [2] was 310 nM; in data set [6], 0.39 nM; in data set [7] it was 3 nM.
